In US11090305B2, “Methods and compositions to reduce oxidative stress” (University of Massachusetts, priority 2009, dated 2021):

Experiments:
db/db MSC = experiment: Response of db/db MSC to adipogenic medium (Oil Red O staining); type: cell-based, mouse
Procedure: Adipocytes were identified by Oil Red O staining. m±sd, n=5, *p<0.05.
Adipocytes were identified by Oil Red O staining. m±sd, n=4, *p<0.05 vs control. […] Endothelial cells were identified by CD31 staining. m±sd, n=4, *p<0.05 vs control, #p<0.05 vs 5 nM.

[1] = test system: p19^Arf, p21^Waf1, and p27^Kip1; experiment: RT-PCR expression of p19^Arf, p21^Waf1, p27^Kip1 in HSCs; type: in vivo, mouse; details: ApoE^−/− mice, in vivo treatment
Procedure: The expression of p15^Ink4b, p16^Ink4a, p18^Ink4c, p19^ARF, P21^Waf1, and p27^Kip1 was determined using RT-PCR, a more sensitive and quantitative assay, in ApoE^−/− and WT HSCs.

[2] = test system: bone marrow mononuclear cell population; experiment: Lymphocyte lineage specification: pre-B and pro-T cells in bone marrow; parameters: species or system mouse; details: ApoE^−/− mice, in vivo treatment
Procedure: (§1) Cells were stained with monoclonal antibodies conjugated to various fluoroprobes. These antibodies included: Notch1, cKit (2B8), Sca-1 (E13-161.7), CD4 (L3T4), CD8 (53-6.72), CD90.1, CD25, CD44, TCRβ, NK1.1, γδTCR, CD45.1, CD45.2. The lineage cocktail consisted of CD4, CD8, B220 (RA3-6B2), TER-119, Mac-1 (MI/70), and Gr-1 (RB6-8C5). All antibodies were purchased from BD Bioscience (San Diego, Calif.). FACS analysis was carried out on a FACS Diva.
Hypercholesterolemia is associated with lymphocytosis, while induction of hypercholesterolemia in monkeys affects the rate of CD11b monocyte differentiation. […] FIGS. 46A-46C show lymphocyte lineage specification is altered in hypercholesterolemic mice. (A) The percentages of pre-B cells and pro-T cells in the bone marrow mononuclear cell population were lower and higher, respectively, in ApoE^−/− than in WT mice. These changes were reversed by in vivo treatment of ApoE mice with NAC. (B) The percentages of pre-B cells and pro-T cells in the bone marrow mononuclear cell population were lower and higher, respectively, in HCD than in WT mice. (C) The percentage of mature B cells was lower and that of mature T cells higher in the peripheral blood mononuclear cell population from ApoE mice than from WT mice. The percentage of NKT cells was also less in ApoE mice.

[3] = test system: hypercholesterolemic mice (ApoE^−/−, HCD); experiment: Azoxymethane (AOM)-induced colorectal neoplasia; parameters: species or system mouse; details: in vivo pretreatment
From the text: All mice were purchased from Jackson Laboratories (Bar Harbor, Me.) and were maintained in the mouse barrier facility. Care of mice was in accordance with NIH guidelines and the Institutional Animal Care and Use Committee of the University of Massachusetts Medical School approved all protocols. Mice were kept on a 12 hr day/night schedule and were allowed free access to chow and water. ApoE^−/− and WT mice were fed standard mouse chow (5.4 g fat/100 g diet, 0% cholesterol). HCD mice were fed a diet with 10 g fat/100 g diet, […] (Research Diets, New Brunswick, N.J.). […] Azoxymethane (AOM) was given by intraperitoneal injection (10 mg/Kg weekly for 3 weeks); 1% dextran sodium sulfate was added to the drinking water for the Pt week after AOM treatment. The colon and rectum was removed en bloc from each mouse and the number of polyps was identified using a dissecting microscope. Each polyp was frozen in OCT at −80° C. and cryosections (10 μM) cut. […] (A) Total serum cholesterol measured under fasting conditions (16 hr) was greater in ApoE^−/− and HCD groups than in the WT group. […] Ten weeks later, the incidence and number of polyps were determined in the colon and rectum, and a pathologist blinded to study condition assigned each polyp a histological grade (hyperplasia, grade 1, 2, or 3 adenoma, or carcinoma). […]

Notch1 = Notch1 expression in HSCs, early T progenitor cells and thymocytes (Example 6); type: in vivo, mouse; details: hypercholesterolemic mice, 4 weeks
Procedure: as §1
The Notch signaling pathways are expressed extensively in the hematopoietic system. Notch signaling dominates the regulation of proliferation, self-renewal, and lineage commitment of HSCs in the bone marrow as well as their downstream differentiation and maturation in the thymus (23-28). Moreover, Notch1 appears to participate in the differentiation of the unique T cell subsets, NKT cells and γδT cells (29-32). In this context, the mechanistic basis between HSC oxidant stress and aberrant lineage specification toward NKT and γδT cells in hypercholesterolemic mice was evaluated by determining Notch expression in HSC, bone marrow T cell progenitors, and immature thymocytes. […] Notch1 expression was evaluated in HSCs, early T progenitor cells, and thymocytes differs between ApoE^−/− and WT mice. […] Notch1 expression also was evaluated in HSCs, early T progenitor cells, and thymocytes differs between HCD and WT mice. […]

CC(=O)N[C@@H](CS)C(=O)O [NAC, N-acetylcysteine]
differentiation towards adipocytes (db/db MSC): reduced adipogenesis
HSC expression of p19^Arf, p21^Waf1, and p27^Kip1 [1]: fully reversed these increases
percentages of pre-B cells and pro-T cells in bone marrow [2]: reversed these effects
histological severity of AOM-induced colorectal polyps ([3]; ApoE^−/− and HCD mice): these effects were reversed by in vivo pretreatment with NAC
susceptibility to AOM-induced neoplasia ([3]; hypercholesterolemic mice): reduced susceptibility to AOM-induced neoplasia
differences in Notch1 expression in HSCs, T progenitor cells and thymocytes (Notch1): significantly reversed by in vivo treatment with NAC for 4 weeks
